Experimental data as given in patent US20250127784A1, “Treatment of Telangiectasia” (IMPERIAL COLLEGE INNOVATIONS LIMITED, priority 2022, published 2025).
Entries after “also recorded” stand apart in the source; their conditions may differ.

Key:
[1] = test system: pulmonary arteriovenous malformations (PAVMs) of the HHT patient; experiment: Blinded thoracic CT scan comparison of pulmonary AVMs before and after trametinib; type: in vivo, human; settings: for effect on pulmonary AVMs (CT scans): 1 month before versus after 10 months of trametinib treatment; for size of venous sac #7: 13 mm at T−2 ys, 15 mm at T−1M
Method: Thoracic CT scan images taken for clinical purposes were compared before Trametinib (−10 years (T−10 yrs), −2 years (T−2ys), −1 month (T−1M)), and after Trametinib for 4 months (T+4M), 10 months (T+10M) and 18 months (T+18M, data not shown).
Blinded analysis of the CT scans was conducted by an expert Imperial Thoracic Radiologist to address the question of “whether the PAVMs have stayed the same, got better, or got worse?”

[2] = test system: HHT-associated haemorrhage (nosebleeds) and anaemia in ENG+/− HHT patient; experiment: Clinical case: HHT patient treated with trametinib, nosebleeds and transfusion-dependent anaemia; settings: for nosebleed frequency grade/category for HHT patients (Shovlin 2010, N=202): pre: highest category
[3] = dose of 2 mg/day; cited from earlier work
[4] = test system: MEK1/2 transcript levels in control and ENG+/− BOECs; experiment: RNASeq of blood outgrowth endothelial cells (BOECs) treated by BMP9: MEK1/2; type: cell-based, human; settings: treated by BMP9 for 1 hour versus untreated, RBM45-normalised
Method: (§1) FIG. 9: RNASeq data in HHT and control endothelial cells for MAP2K1 encoding MEK1 from 16 cultures of blood outgrowth endothelial cells (BOECs: 4 controls, and 12 from the HHT genotypes ACVRL1^+/−, ENG^+/− and SMAD4^+/−). Data were RBM45-normalised which normalises for PTC-induced stress. A All BOECs, B Control and ENG BOECs; C Control and ENG BOECs untreated (unRx) and treated (Rx) by BMP9 for 1 hour. Bars: mean and standard deviation; circles: individual cultures.
as §1, with “10:” for “9:”, “MAP2K2” for “MAP2K1”, “MEK2” for “MEK1”
RNAseq was carried out on BOECs from HHT patients and healthy controls to investigate MEK1/MEK2 transcription levels, using RBM45 normalisation to normalise for PTC-related stress.

[5] = test system: MAP3K1 transcripts in BOECs; experiment: RNASeq of blood outgrowth endothelial cells (BOECs) treated by BMP9: MAP3K1; type: cell-based, human; settings: all BOECs (N=16), treated by BMP9 for 1 hour versus untreated
Method: FIG. 8: MAP3K1 RNASeq data in HHT and control endothelial cells from 16 cultures of blood outgrowth endothelial cells (BOECs: 4 controls, and 12 from the HHT genotypes ACVRL1^+/−, ENG^+/− and SMAD4^+/−). Data were RBM45-normalised. A Untreated BOECs (N=8). B All BOECs (N=16), untreated (unRx), and treated (Rx) by BMP9 for 1 hour. Bars: mean and standard deviation; circles: individual cultures.
To test this hypothesis, further RNASeq analysis of blood outgrowth endothelial cells (BOECs) from HHT patients was carried out. It has previously been shown that the Shovlin group established BOECs from controls and patients of all 3 HHT genotypes (ENG^+/−, ACVRL1^+/− and SMAD4^+/−); extracted RNA from replicate cultures; and developed novel methodologies to interpret primary alignment data generated by sequencing alignments to Homo sapiens human genome build 38 (GRCh38). […]
To test this hypothesis, further RNAseq analysis of blood outgrowth endothelial cells (BOECs) from HHT patients was carried out, and the relative expression levels of TGFβ/BMP9 signalling inhibitors was investigated. […] RNA had been extracted from replicate cultures; sequenced and aligned to Homo sapiens human genome build 38 (GRCh38), and unique gene reads normalised to total alignment counts per library initially further normalised using the Shovlin-group validated, lowest Gini Coefficient (GC) housekeeper gene RBM45 […]

Molecule: CC(=O)Nc1cccc(-n2c(=O)n(C3CC3)c(=O)c3c(Nc4ccc(I)cc4F)n(C)c(=O)c(C)c32)c1 [trametinib, N-(3-{3-Cyclopropyl-5-[(2-fluoro-4-iodophenyl)amino]-6,8-dimethyl-2,4,7-trioxo-3,4,6,7-tetrahydropyrido[4,3-d]pyrimidin-1(2H)-yl}phenyl)acetamide]
- effect on pulmonary AVMs (CT scans) [1]: has no effect on the patient's AVMs; also recorded: pulmonary AVMs did not improve
- effect on pulmonary AVMs (CT scans) ([1]; listed as Trametinib): No pulmonary AVMs improved; also recorded: had no effect on the PAVMs; also recorded: within the error of CT, but with a probable slight increase in size
- size of venous sac #7 ([1]; T+4M (trametinib for 4 months)): 16 mm
- size of venous sac #7 ([1]; T+10M (trametinib for 10 months)): 16.6 mm
- number of the 11 main pulmonary AVMs possibly slightly larger ([1]; scans 1 month before trametinib and 11 months later, after 10 months of treatment): 4
- overall effect on HHT telangiectasia, nosebleeds (haemorrhage) and anaemia ([2]; ENG+/− HHT patient, trametinib treatment): treats telangiectasia, and particularly anaemia and haemorrhage associated with telangiectasia in HHT; also recorded: clinically important improvement in nosebleeds and anaemia; also recorded: elicited an improvement in HHT-associated haemorrhage (nosebleeds) and anaemia
- maximum nose bleed frequency, two most severe categories (daily or weekly) ([2]; after 10 months of trametinib treatment): no longer fitted into either of these categories
- haemorrhage adjusted iron requirement (HAIR) grouping (Finnamore 2013, N=50) ([2]; after 10 months of trametinib, pre: 4th highest grouping): lowest grouping
- nosebleed frequency grade/category for HHT patients (Shovlin 2010, N=202) ([2]; after 10 months of trametinib): 3rd lowest frequency grade
- nosebleed frequency grade/category for HHT patients (Shovlin 2010, N=202) ([2]; after 10 months of trametinib, listed as Trametinib): third lowest category
- haemorrhage adjusted iron requirement (HAIR) quintile (Finnamore 2013, N=50) ([2]; after 10 months of trametinib, pre: highest quintile): lowest quintile
- intensity of nosebleeds ([2]; after 10 months trametinib treatment): brief trickles
- nosebleed frequency ([2]; after 10 months trametinib treatment, before: several times per week to multiple times per day): no more than once per month
- blood (red cell) transfusion requirement for anaemia ([2]; after 10 months trametinib treatment, previously every 3 weeks): transfusions were not required even at extended assessment times
- transfusion assessment interval ([2]; after 10 months trametinib treatment, previously transfusions every 3 weeks): 8 weekly
- nosebleeds (frequency and intensity), maintained frequency ([2]; at 18 and 24 months of trametinib treatment): approximately one a year
- haemorrhage adjusted iron requirement (HAIR) ([2]; at 18 and 24 months of trametinib treatment (not shown)): reduced
- side effects, adverse event grade (CTCAE version 5.0) ([2]; standard chemotherapeutic regimen, HHT patient with cancer): Grade 1
- elimination half-life [3]: 93.6 to 115 h

B1: BMP9: bone morphogenetic protein 9 (aka growth and differentiation factor 2, GDF2); causal ligand for HHT, used to treat BOECs for 1 hour (protein, UniProt Q9UK05 320-429, looked up)
Growth/differentiation factor …: SAGAGSHCQKTSLRVNFEDIGWDSWIIAPKEYEAYECKGGCFFPLADDVTPTKHAIVQTLVHLKFPTKVGKACCVPTKLSPISVLYKDDMGVPTLKYHYEGMSVAECGCR
- MEK1/2 transcript levels (RNASeq) [4]: no effect
- MAP3K1 transcripts (RNASeq) [5]: significantly increased
